# Test results reported in US20070282012A1 (priority 2004, published 2007).
# Several values for one entry are separate records, joined by “and”; a condition that tells them apart may be missing. Equal entries are not always repeated.
# Key:
# [1] = tested on: subjects regularly wearing SCL; set-up: species or system human; conditions: in vivo
# [2] = tested on: subjects regularly wearing SCL; set-up: species or system human; conditions: in vivo; remark: listed apart in the source
# [3] = tested on: patients with tear deficient dry eye; conditions: in vivo
# normal subjects [4] = conditions: in vivo
# normal subjects [5] = tested on: normal subjects; set-up: species or system human; conditions: in vivo
# [6] = tested on: patients with tear deficient dry eye; conditions: human, in vivo
# tear deficient dry eyes [7] = tested on: tear deficient dry eyes; set-up: species or system human; conditions: in vivo
# [8] = tested on: patients with tear deficient dry eye; conditions: human, in vivo; remark: listed apart in the source
# normal subjects [9] = tested on: normal subjects; set-up: species or system human; conditions: in vivo; remark: listed apart in the source
# [10] = tested on: subjects regularly wearing SCL; set-up: species or system human; conditions: in vivo; remark: listed apart in the source
# tear deficient dry eyes [11] = tested on: tear deficient dry eyes; set-up: species or system human; conditions: in vivo; remark: listed apart in the source
# normal subjects [12] = tested on: normal subjects; set-up: species or system human; conditions: in vivo; remark: listed apart in the source
substance,measurement,setting,value
Thiopropanal S-Oxide [lacrimatory component],grades of specular image of the tears on SCL,[1],1.4±0.5
same,NIBUT,[2],9.1 ± 2.1 s
same,effects on the ocular surface epithelium,[3],No effects on the ocular surface epithelium was observed
same,adverse or lingering effects of the exposure on the ocular surface,normal subjects [4],not found
same,degree of stimulation,normal subjects [5],0
same,"mean degree of the stimulation, four-level category rating",normal subjects [5],3 and 1.5
same,mean time taken for the stimulation to be felt (ST),normal subjects [5],9.8 s and 14.5 s and 13.3 s
same,"time taken for stimulation to be felt (ST), mean value±standard deviation",normal subjects [5],9.8 ± 1.5 s
same,"degree of the stimulation, four-level category rating",[6],zero
same,"mean degree of the stimulation, four-level category rating",[6],1.8 and 1.7
same,"time taken for stimulation to be felt (ST), mean value±standard deviation",[6],18.8 ± 9.3 s and 21.4 ± 9.8 s
same,"extensibility of the tear lipid layer, Grade, mean value±standard deviation",tear deficient dry eyes [7],1.5±0.6
same,time after exposure at which ΔR was maximum,[8],2 min
same,ΔR (5 minutes),[8],~0 mm
same,reflex lacrimation by nasal exposure,normal subjects [9],no reflex lacrimation is induced
same,"R (radius of tear meniscus curvature), mean value±standard deviation",[10],0.54±0.14 mm
same,"radius of tear meniscus curvature R, mean value±standard deviation",tear deficient dry eyes [11],0.34±0.20 mm
same,lacrimation in the contralateral non-exposed eye,normal subjects [12],lacrimation is induced in the contralateral non-exposed eye
same,time after exposure by which ΔR reached the maximum,normal subjects [12],≤ 1 min
same,ΔR (2 minutes),normal subjects [12],0.25±0.14 mm
same,ΔR (10 minutes),normal subjects [12],~0 mm
same,ΔR in the contralateral non-exposed eye,normal subjects [12],0.30 mm
